We go through three compounds from US20080171779A1, “USE OF 5-HT6 ANTAGONISTS TO PREVENT RELAPSE INTO ADDICTION” (Solvay Pharmaceuticals B.V., priority 2007, published 2008).

For assay [1], the system named is relapse behavior induced by conditioned drug cues (cocaine, heroin, nicotine, alcohol). The settings on record: cues previously associated with cocaine, nicotine and alcohol delivery; cited from earlier work.
The test system of assay [2] is cue-induced relapse of alcohol seeking in the rat. In words: Stimulus (cue) induced reinstatement of extinguished self-administration of alcohol. The settings on record: for Nose-pokes after an alcohol induced cue, former alcoholics / Nose-pokes after an alcohol induced cue, total abstainers: 45 min test, mean ± spread; for amount of active nose-pokes versus placebo, cue induced alcohol seeking: one-way ANOVA, Fisher's LSD; for inactive nose-pokes versus placebo, cue induced alcohol seeking: all tested dosages. The assay is classed as in vivo. The protocol: After learning to consume alcohol 12% (v/v) in a two-bottle paradigm, rats were trained to self-administer alcohol in the operant cage. When response-rates were stable, animals were withdrawn from alcohol for three weeks. Subsequently, the effect of 5-HT6 antagonists on relapse was tested by re-exposing the animals to alcohol-related stimuli.
Animals: 64 male Wistar rats, weighing 280-300 g at arrival (Harlan, the Netherlands) were used for testing compound 33. The animals were housed individually in a temperature—(T=22±2° C.) and humidity (rel %=60±5%) controlled room on a reversed 12 h light-dark cycle (lights off at 7:00 AM) with water available ad libitum. The animals were on a diet of 18 gr chow per animal per day. The experiment started after one week of acclimatization and lasted 12-14 weeks.
Drug Self-administration: All training and testing was conducted in 16 operant chambers (30.5×24.1×29.2 cm) surrounded by sound attenuating ventilated cubicles (Med Associates, Georgia, Vt.). The chambers were fitted with a grid floor, a red dim house light and opposite the house light an intelligence panel. In the intelligence panel there were two nose-poke holes (Ø2.5 cm) located 5.5 cm above the grid floor and 16 cm separated from each other. A red dim stimulus light was located 12 cm above both nose-poke holes. Between the two nose-poke holes, a receptacle was located, in which the alcohol was delivered. High above the receptacle was a sonalert tone module. […] The alcohol drop was delivered by an infusion pump (PHM-100, MedAssociates, Georgia, Vt.) in 4.2 seconds During alcohol delivery, the active nose-poke hole was illuminated and a tone (±65 dB) was presented by the sonalert tone module for 2 seconds. The receptacle was illuminated for 5 seconds (discrete cues). The stimulus light switched off for 15 seconds (discriminative cue). In this 15 second time-out period, nose-poking was without consequences.
Animals were selected for further testing if they consumed alcohol doses (in the FR4-schedule) above the literature described pharmacological effective dose of 0.3 g/kg/hr (Linseman, 1987). Subsequently, when response behavior on the FR4-schedule was stable, there was a 3 week period of withdrawal in the homecage.
Test for reinstatement: After the withdrawal period, each animal was tested twice for cue induced reinstatement with a week of further extinction training and wash-out in between. Animals were randomly distributed over the different experimental groups and never received the same treatment twice. On test days, the animals were placed in the operant cage for three or four hours (test day 1: 4 hr; test day 2: 3 hr) in absence of alcohol and alcohol related stimuli (discrete and discriminative cues) to extinguish response behavior. One hour before the end of this extinction session, the animal was removed from the operant cage and treated with a 5-HT6 antagonist. After drug administration the animals was placed back into the operant chamber, where the session continued. When the last hour had passed, the cue-induced relapse test session started (duration: 45 min). During this test, the experimental conditions were similar to the conditions during training on an FR4-schedule, with the exceptions that 1) at the beginning of the session, a 12% alcohol drop of 0.20 ml was available (delivered in the receptacle by the experimenter at the begin of the test session) and 2) after every 4th response, only cues were presented (no alcohol was delivered). Tests were operated and raw data was saved by the MED-PC IV program (Tatham, 1989).
Drugs: Alcohol 12% (v/v) was made from alcohol 96% and diluted with tap water. Compound 33 was suspended in 5% Tween 80, 0.25% methylcellulose, 5% PEG 400 and H2O HPLC (65% of end volume). Ethanol was added and evaporated under N2-gas. The pH was adjusted to 5.8. In the range: 0, 3,10, and 30 mg/kg, compound 33 was administered intraperitoneally, 15 minutes before testing. The injection volume was 2 ml/kg. […]

The subject of assay [3] is cue-induced relapse of nicotine seeking in the rat. Kind of assay: Stimulus (cue) induced reinstatement of extinguished self-administration of nicotine. The assay is classed as in vivo. Conditions: for Nose-pokes after a nicotine induced cue, total abstainers / Nose-pokes after a nicotine induced cue, former nicotine addicts: 30 min test, mean ± spread; for Nose-pokes after a nicotine induced cue, former nicotine addicts: column 'former nicotine addicts'. An excerpt: Using a very similar test protocol, 5-HT6 antagonists were also found to suppress cue-induced nicotine-seeking behavior. Thus 5-HT6 antagonists are believed useful for the preparation of medicaments for preventing relapse into addiction, in particular relapse into addiction to substances of abuse, including opiates, hallucinogens, inhalants, phencyclidine, amphetamines, cocaine, cannabis, nicotine, and alcohol, medicaments for preventing relapse to addiction to certain medicines, including sedatives, hypnotics and anxiolytics, and medicaments for preventing relapse to certain addictive behaviors, including gambling.
Animals: 32 male Wistar rats, weighing 280-300 g at arrival (Harlan, the Netherlands) were used for testing compound 33. The animals were housed individually in a temperature—(T=22±2° C.) and humidity (rel %=60±5%) controlled room on a reversed 12 h light-dark cycle (lights off at 7:00 AM) with water and food available ad libitum. The experiment started after one week of acclimatization and lasted 12-14 weeks.
Surgery: after a week of acclimatization, intravenous silicon catheters are implanted in the right jugular vein under isoflurane anesthesia as described previously in De Vries, 1999.
Drug Self-administration: All training and testing was conducted in 16 operant chambers (30.5×24.1×29.2 cm) surrounded by sound attenuating ventilated cubicles (Med Associates, Georgia, Vt.). The chambers were fitted with a grid floor, a red dim house light and opposite the house light an intelligence panel. In the intelligence panel there were two nose-poke holes (Ø2.5 cm) located 5.5 cm above the grid floor and 16 cm separated from each other. A red dim stimulus light was located 12 cm above both nose-poke holes. A tone module was located at the top of the center of the intelligence panel. During self-administration, animals were connected to an infusion pump (PHM-100, Med Associates, Georgia, V.T.) by a swivel to receive intravenous infusions of nicotine (40 μg/kg/inf). […] During this infusion, the active nose poke hole was illuminated (yellow light) and an audio stimulus was presented (tone of 2900 Hz and 65 dB for 2 seconds) (discrete cues). From the moment of nicotine delivery, the stimulus light switched off for 15 seconds (discriminative cue). In this time-out period, nose poking was without consequences.
Acquisition, withdrawal and reinstatement: Behavioral training started 5-7 days after surgery. […] When response behavior was stable, animals were selected for further testing if they earned at least 5 rewards during the last three sessions of the FR3 schedule and the reward delivery was equal distributed over the session. Subsequently, responding for nicotine was extinguished. In this extinction phase (11 daily sessions of 60 min), the animals were placed in the operant chambers, but the nicotine and nicotine related stimuli (discrete and discriminative cues) were not available. Finally, the animals were tested for cue-induced reinstatement. During this test (duration of 30 minutes), the experimental conditions were similar to the conditions during training on an FR3-schedule, with the exception that no nicotine was available and the animals were not connected to the swivel.
Tests for cue-induced reinstatement were conducted twice; between these two test days, there was a week of further extinction training (wash-out period). During cue-induced reinstatement, effects of 5-HT6 antagonists were studied on output measurements.
Drugs: Nicotine for self-administration: (−) nicotine hydrogen tartrate salt (Sigma, St Louis, Mo.) was dissolved in sterile saline. The pH of the solution was adjusted to +/−7.4 with diluted NaOH. Nicotine dose was expressed as free base weight. Compound 33 was suspended in 5% of end volume Tween 80. Ethanol was added and evaporated under N2-gas for 30 minutes. […] After the pH was adjusted to 5.5, 10% of end volume H2O HPLC was added. […]

Assay [4] relates to cue-induced relapse of alcohol seeking in the rat. In words: Stimulus (cue) induced reinstatement of extinguished self-administration of alcohol. The settings on record: 20 mg/kg. The assay is classed as in vivo.

On to `Cc1c(C(=O)NN2CCCCC2)nn(-c2ccc(Cl)cc2Cl)c1-c1ccc(Cl)cc1` [SR141716A], for which the “relapse behavior induced by conditioned drug cues” value in assay [1] is on record as “able to selectively reduce relapse behavior”.
As for `CCN/C(=N\S(=O)(=O)c1cccc(Cl)c1)N1CC(C)(C)C=N1` [compound 33], the “Nose-pokes after an alcohol induced cue, former alcoholics” value in assay [2] (3 mg/kg) was 27.0 ± 6.1; in assay [2] (10 mg/kg), 23.5 ± 4.2. Also, the “Nose-pokes after an alcohol induced cue, total abstainers” value in assay [2] (3 mg/kg) was 1.1 ± 0.2; in assay [2] (10 mg/kg) it was 2.2 ± 1.5; in assay [2] (30 mg/kg) it was 0.8 ± 0.1. Further, the “relapse into addiction (alcohol)” value in assay [2] (30 mg/kg) is given as “prevented from relapse into addiction”. The “amount of active nose-pokes versus placebo, cue induced alcohol seeking” value in assay [2] (30 mg/kg, p<0.005) was “significantly lower”. The “inactive nose-pokes versus placebo, cue induced alcohol seeking” value in assay [2] is “no significant difference”. Also, the entries for the “Nose-pokes after a nicotine induced cue, total abstainers” value in assay [3] (3 mg/kg intraperitoneally), in assay [3] (10 mg/kg intraperitoneally) and in assay [3] (30 mg/kg intraperitoneally) were 4.58 ± 1.17, 3.00 ± 1.04 and 1.75 ± 0.74, respectively. The entries for the “Nose-pokes after a nicotine induced cue, former nicotine addicts” value in assay [3] (3 mg/kg intraperitoneally) and in assay [3] (10 mg/kg intraperitoneally) were 24.83 ± 3.20 and 28.50 ± 7.40, respectively. Also, in assay [3] (30 mg/kg), the “relapse into addiction (nicotine)” value is “prevented from relapse into addiction”. The “amount of active nose-pokes versus placebo, cue induced nicotine seeking” value in assay [3] (30 mg/kg, one-way ANOVA, Fisher's LSD, p<0.05) is “significantly lower”. In addition, the “inactive nose-pokes versus placebo, cue induced nicotine seeking” value in assay [3] (all tested dosages) is listed as “no significant difference”.
`COc1ccc(NS(=O)(=O)c2sc3ccc(Cl)cc3c2C)cc1N1CCNCC1.Cl` [SB-271046, reference compound]: the “relapse into addiction (alcohol)” value in assay [4] was “prevented from relapse into addiction”. Besides, the “Nose-pokes after an alcohol induced cue, total abstainers” value was 2.7 ± 1.9 in assay [4] ('total abstainers', 45 min test, mean ± spread); 1.1 ± 0.5 in assay [2] (3 mg/kg); 0.9 ± 0.5 in assay [2] (10 mg/kg). The “amount of active nose-pokes versus placebo, cue induced alcohol seeking” value is “significantly lower” in assay [4] (one-way ANOVA, Fisher's LSD, p<0.005) and “significantly lower” in assay [2] (10 mg/kg, p<0.05). In addition, the “Nose-pokes after an alcohol induced cue, former alcoholics” value in assay [2] (3 mg/kg) is 11.9 ± 5.4. Moreover, the “inactive nose-pokes versus placebo, cue induced alcohol seeking” value in assay [2] is “no significant difference”.
